For orientation: IC50 means the concentration at which inhibition is half-maximal.

For assay [1], the target named is T1, NLRP3 (Homo sapiens, UniProt Q96P20). Nature of the assay: THP-1 cells pyroptosis assay (LPS + nigericin, resazurin read-out). The class given is cell-based. More on the design: Seed THP-1 cells (25,000 cells/well) containing 1.0 μg/ml LPS; host or cells: THP-1 cells. The procedure, abridged: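 THP-1 cells (25,000/well) primed with 1 μg/ml LPS in serum-free RPMI, treated 3 h with compound (8-point half-log series, 10 μM top, 0.1% DMSO), then 5 μM nigericin for 1 h at 37 °C. Viability read by 100 μM resazurin fluorescence after 1-2 h; IC50 from 4-parameter fit.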
T1 sequence (Q96P20 whole entry): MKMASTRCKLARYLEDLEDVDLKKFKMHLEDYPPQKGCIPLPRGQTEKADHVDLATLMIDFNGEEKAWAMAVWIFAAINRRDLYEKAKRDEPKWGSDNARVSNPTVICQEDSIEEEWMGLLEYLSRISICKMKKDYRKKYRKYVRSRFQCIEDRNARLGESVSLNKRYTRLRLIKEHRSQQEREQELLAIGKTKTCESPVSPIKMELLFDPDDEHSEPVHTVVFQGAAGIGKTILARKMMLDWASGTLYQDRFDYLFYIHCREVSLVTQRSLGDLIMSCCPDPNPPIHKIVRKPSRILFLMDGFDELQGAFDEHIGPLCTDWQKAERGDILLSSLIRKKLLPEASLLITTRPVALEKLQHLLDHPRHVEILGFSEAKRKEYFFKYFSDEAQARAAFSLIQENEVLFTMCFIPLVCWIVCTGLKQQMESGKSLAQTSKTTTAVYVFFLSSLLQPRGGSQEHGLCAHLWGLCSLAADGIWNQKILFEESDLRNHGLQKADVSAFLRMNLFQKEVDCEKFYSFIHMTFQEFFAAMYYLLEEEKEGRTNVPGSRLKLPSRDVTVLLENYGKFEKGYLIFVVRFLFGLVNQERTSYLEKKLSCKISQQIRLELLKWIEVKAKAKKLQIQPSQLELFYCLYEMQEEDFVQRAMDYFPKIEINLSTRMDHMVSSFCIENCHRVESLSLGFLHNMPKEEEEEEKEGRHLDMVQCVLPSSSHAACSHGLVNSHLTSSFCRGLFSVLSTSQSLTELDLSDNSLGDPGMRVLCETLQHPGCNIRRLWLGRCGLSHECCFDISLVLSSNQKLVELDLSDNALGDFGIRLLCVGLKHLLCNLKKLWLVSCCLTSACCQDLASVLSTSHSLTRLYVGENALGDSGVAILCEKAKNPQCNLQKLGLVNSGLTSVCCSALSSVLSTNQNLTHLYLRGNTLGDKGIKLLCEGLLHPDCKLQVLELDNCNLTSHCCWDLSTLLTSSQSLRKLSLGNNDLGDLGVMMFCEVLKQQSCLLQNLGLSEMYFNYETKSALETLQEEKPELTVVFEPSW
(Resazurin is reduced to fluorescent resorufin, in cell work by metabolically active cells.)

The target in assay [2] is T1, NLRP3. Nature of the assay: Human whole blood IL-1β release assay (LPS + nigericin, AlphaLisa). The class given is cell-based. Further details: Plate out 80 μl of whole blood containing 1 μg/ml of LPS; from tissue; host or cells: human whole blood from healthy donors. Here is the method:
For systemic delivery, the ability to inhibit NLRP3 when the compounds are present within the bloodstream is of great importance. For this reason, the NLRP3 inhibitory activity of a number of compounds in human whole blood was investigated in accordance with the following protocol.
Human whole blood in Li-heparin tubes was obtained from healthy donors from a volunteer donor panel. • 1. Plate out 80 μl of whole blood containing 1 μg/ml of LPS in 96-well, clear bottom cell culture plate (Corning #3585) • 2. Add 10 μl compound (8 points half-log dilution with 10 μM top dose) or vehicle (DMSO 0.1% FAC) to the appropriate wells • 3. Incubate for 3 hrs at 37° C., 5% CO2 • 4. Add 10 μl nigericin (Sigma #N7143) (10 μM FAC) to all wells • 5. Incubate for 1 hr at 37° C., 5% CO2 • 6. At the end of the incubation period, spin plates at 300×g for 5 mins to pellet cells and remove 20 μl of supernatant and add to 96-well v-bottom plates for IL-1β analysis (note: these plates containing the supernatants can be stored at −80° C. to be analysed at a later date) • 7. IL-1β was measured according to the manufacturer protocol (Perkin Elmer-AlphaLisa IL-1 Kit AL220F-5000) • 8. IC50 data is fitted to a non-linear regression equation (log inhibitor vs response-variable slope 4-parameters)
In general terms: Alpha assays give light when donor and acceptor beads are brought close together.

Setting [3] is: THP-1 cells, 1 μg/ml LPS, 5 μM nigericin, NLRP3 inhibitory activity, read-out: THP IC50.
[4] abbreviates: human whole blood, 1 μg/ml LPS, 10 μM nigericin, IL-1β release, read-out: HWB IC50.

SMILES strings stand for the structures. Counter-ions that a name gives are not always drawn. A value given as a limit tells only on which side of the number the result lay.

On to `CC(C)n1cc(NS(=O)(=O)NC(=O)Nc2c3c(cc4c2CCC4)CCC3)cn1` [Example 65, 3-(N-(1-Isopropyl-1H-pyrazol-4-yl)sulfamoyl)-1-(1,2,3,5,6,7-hexahydro-s-indacen-4-yl)urea, potassium salt], for which the IC50 at NLRP3 [1] (setting [3]) is under 500 nM; on NLRP3 [2] (setting [4]), under 5000 nM.

With `CN(C)CC1CCN(S(=O)(=O)NC(=O)Nc2c3c(cc4c2CCC4)CCC3)C1` (stereo not drawn) [Example 68, potassium salt], the half-inhibitory concentration (IC50) on NLRP3 [1] (setting [3]) was under 500 nM; at NLRP3 [2] (setting [4]) it was under 1000 nM.

Turning to `CC(C)(C)NCCNS(=O)(=O)NC(=O)Nc1c2c(cc3c1CCC3)CCC2` [Example 71, 3-(N-(2-(tert-Butylamino)ethyl)sulfamoyl)-1-(1,2,3,5,6,7-hexahydro-s-indacen-4-yl)urea, potassium salt], the results for the IC50 at NLRP3 [1] (setting [3]) and at NLRP3 [2] (setting [4]) were under 500 nM and under 1000 nM, respectively.

With `O=C(Nc1c2c(cc3c1CCC3)CCC2)NS(=O)(=O)N1CCC(N2CCCC2)C1` (stereo not drawn) [Example 72, N-((1,2,3,5,6,7-Hexahydro-s-indacen-4-yl)carbamoyl)-[1,3′-bipyrrolidine]-1′-sulfonamide, potassium salt], the IC50 on NLRP3 [1] (setting [3]) and on NLRP3 [2] (setting [4]) was under 500 nM in each case.

For the molecule `O=C(Nc1c2c(cc3c1CCC3)CCC2)NS(=O)(=O)N1CCC(N2CCC2)C1` (stereo not drawn) [Example 73, 3-(Azetidin-1-yl)-N-((1,2,3,5,6,7-hexahydro-s-indacen-4-yl)carbamoyl)pyrrolidine-1-sulfonamide, potassium salt], the concentration for half-maximal inhibition (IC50) on NLRP3 [1] (setting [3]) was under 1000 nM; at NLRP3 [2] (setting [4]), under 5000 nM.

`O=C(Nc1c2c(cc3c1CCC3)CCC2)NS(=O)(=O)N1CC2CCC(C1)N2C1CC1` [Example 75, 8-Cyclopropyl-N-((1,2,3,5,6,7-hexahydro-s-indacen-4-yl)carbamoyl)-3,8-diazabicyclo[3.2.1]octane-3-sulfonamide, potassium salt]: the IC50 at NLRP3 [1] was under 500 nM; on NLRP3 [2] it was under 5000 nM.

For `CN1CC[C@H](N(C)S(=O)(=O)NC(=O)Nc2c3c(cc4c2CCC4)CCC3)C1` [Example 76, 3-((S)—N-Methyl-N-(1-methylpyrrolidin-3-yl)sulfamoyl)-1-(1,2,3,5,6,7-hexahydro-s-indacen-4-yl)urea, potassium salt], the 50% inhibitory concentration (IC50) at NLRP3 [1] (setting [3]) and on NLRP3 [2] (setting [4]) was under 500 nM each time.

Turning to `CN1CCCC1CN(C)S(=O)(=O)NC(=O)Nc1c2c(cc3c1CCC3)CCC2` (stereo not drawn) [Example 80, 3-(N-Methyl-N-((1-methylpyrrolidin-2-yl)methyl)sulfamoyl)-1-(1,2,3,5,6,7-hexahydro-s-indacen-4-yl)urea, potassium salt], the 50% inhibitory concentration (IC50) on NLRP3 [1] (setting [3]) and at NLRP3 [2] (setting [4]) was under 500 nM throughout.

`CN(C)CCCNS(=O)(=O)NC(=O)Nc1c2c(cc3c1CCC3)CCC2` [Example 81, 3-(N-(3-(Dimethylamino)propyl)sulfamoyl)-1-(1,2,3,5,6,7-hexahydro-s-indacen-4-yl)urea, potassium salt]: the half-maximal inhibitory concentration (IC50) at NLRP3 [1] (setting [3]) and on NLRP3 [2] (setting [4]) was under 500 nM each time.

As for `CC(C)N(CCN(C)C)S(=O)(=O)NC(=O)Nc1c2c(cc3c1CCC3)CCC2` [Example 83, 3-(N-(2-(Dimethylamino)ethyl)-N-isopropylsulfamoyl)-1-(1,2,3,5,6,7-hexahydro-s-indacen-4-yl)urea, potassium salt], the half-inhibitory concentration (IC50) is under 1000 nM at NLRP3 [1] (setting [3]) and under 5000 nM on NLRP3 [2] (setting [4]).

Turning to `CN1CC(CN(C)S(=O)(=O)NC(=O)Nc2c3c(cc4c2CCC4)CCC3)C1` [Example 84, 3-(N-Methyl-N-((1-methylazetidin-3-yl)methyl)sulfamoyl)-1-(1,2,3,5,6,7-hexahydro-s-indacen-4-yl)urea, potassium salt], the IC50 is under 500 nM at NLRP3 [1] (setting [3]) and under 1000 nM on NLRP3 [2] (setting [4]).

On to `CCN1CC2CN(S(=O)(=O)NC(=O)Nc3c4c(cc5c3CCC5)CCC4)CC21` (stereo not drawn) [Example 85, 6-Ethyl-N-((1,2,3,5,6,7-hexahydro-s-indacen-4-yl)carbamoyl)-3,6-diazabicyclo[3.2.0]heptane-3-sulfonamide], for which the IC50 on NLRP3 [1] (setting [3]) and on NLRP3 [2] (setting [4]) was under 500 nM in each case.

For `CN1CC2CN(S(=O)(=O)NC(=O)Nc3c4c(cc5c3CCC5)CCC4)CC21` (stereo not drawn) [Example 86, N-((1,2,3,5,6,7-Hexahydro-s-indacen-4-yl)carbamoyl)-6-methyl-3,6-diazabicyclo[3.2.0]heptane-3-sulfonamide], the IC50 at NLRP3 [1] (setting [3]) and on NLRP3 [2] (setting [4]) was under 500 nM each time.

For the molecule `CC(C)N1CC2CN(S(=O)(=O)NC(=O)Nc3c4c(cc5c3CCC5)CCC4)CC21` (stereo not drawn) [Example 87, N-((1,2,3,5,6,7-Hexahydro-s-indacen-4-yl)carbamoyl)-6-isopropyl-3,6-diazabicyclo[3.2.0]heptane-3-sulfonamide, potassium salt], the 50% inhibitory concentration (IC50) was under 500 nM on NLRP3 [1] (setting [3]) and under 5000 nM on NLRP3 [2] (setting [4]).

Take `CN1CC[C@H](NS(=O)(=O)NC(=O)Nc2c3c(cc4c2CCC4)CCC3)C1` [Example 88, 3-((S)—N-(1-Methylpyrrolidin-3-yl)sulfamoyl)-1-(1,2,3,5,6,7-hexahydro-s-indacen-4-yl)urea, potassium salt]: the 50% inhibitory concentration (IC50) was under 1000 nM at NLRP3 [1] (setting [3]) and under 500 nM at NLRP3 [2] (setting [4]).

On to `CN1CC[C@@H](NS(=O)(=O)NC(=O)Nc2c3c(cc4c2CCC4)CCC3)C1` [Example 89, 3-((R)—N-(1-Methylpyrrolidin-3-yl)sulfamoyl)-1-(1,2,3,5,6,7-hexahydro-s-indacen-4-yl)urea, potassium salt], for which the IC50 on NLRP3 [1] (setting [3]) and on NLRP3 [2] (setting [4]) was under 500 nM throughout.

For `CN1CCCN(S(=O)(=O)NC(=O)Nc2c3c(cc4c2CCC4)CCC3)CC1` [Example 90, N-((1,2,3,5,6,7-Hexahydro-s-indacen-4-yl)carbamoyl)-4-methyl-1,4-diazepane-1-sulfonamide, potassium salt], the IC50 on NLRP3 [1] (setting [3]) is under 1000 nM; at NLRP3 [2] (setting [4]), under 500 nM.

On to `CN1CC2(CCN2S(=O)(=O)NC(=O)Nc2c3c(cc4c2CCC4)CCC3)C1` [Example 91, N-((1,2,3,5,6,7-Hexahydro-s-indacen-4-yl)carbamoyl)-6-methyl-1,6-diazaspiro[3.3]heptane-1-sulfonamide, potassium salt], for which the concentration for half-maximal inhibition (IC50) at NLRP3 [1] (setting [3]) is under 1000 nM; at NLRP3 [2] (setting [4]), under 5000 nM.

Turning to `CN1C[C@H]2CN(S(=O)(=O)NC(=O)Nc3c4c(cc5c3CCC5)CCC4)C[C@H]21` [Example 92, (1S,5S)—N-((1,2,3,5,6,7-Hexahydro-s-indacen-4-yl)carbamoyl)-6-methyl-3,6-diazabicyclo[3.2.0]heptane-3-sulfonamide, potassium salt], the IC50 on NLRP3 [1] (setting [3]) and at NLRP3 [2] (setting [4]) was under 500 nM throughout.

Take `CN1C[C@@H]2CN(S(=O)(=O)NC(=O)Nc3c4c(cc5c3CCC5)CCC4)C[C@@H]21` [Example 93, (1R,5R)—N-((1,2,3,5,6,7-Hexahydro-s-indacen-4-yl)carbamoyl)-6-methyl-3,6-diazabicyclo[3.2.0]heptane-3-sulfonamide, potassium salt]: the IC50 at NLRP3 [1] (setting [3]) and on NLRP3 [2] (setting [4]) was under 500 nM each time.

Turning to `CN1CC2CN(S(=O)(=O)NC(=O)Nc3c4c(cc5c3CCC5)CCC4)C2C1` (stereo not drawn) [Example 94, N-((1,2,3,5,6,7-Hexahydro-s-indacen-4-yl)carbamoyl)-3-methyl-3,6-diazabicyclo[3.2.0]heptane-6-sulfonamide, potassium salt], the half-maximal inhibitory concentration (IC50) is under 500 nM on NLRP3 [1] (setting [3]) and under 1000 nM on NLRP3 [2] (setting [4]).

The values above are taken from patent US12187702B2, “Sulfonamideurea compounds” (Inflazome Limited, priority 2018, dated 2025).
